Experimental data as given in PubChem BioAssay (NCI).
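Exposure lasted 48 hours, with cells grown in 96-well plates and compounds tested at five concentrations. Here, GI50 denotes the concentration required for 50% inhibition of growth. Definition used: TGI = concentration required for complete inhibition of growth.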

Key:
Assay in all cases: NCI-60 cell line screen, 48 h
[1] = system: A498 renal
[2] = system: SNB-75 CNS
[3] = system: OVCAR-4 ovarian
[4] = system: LOX IMVI melanoma
[5] = system: PC-3 prostate
[6] = system: SNB-19 CNS
[7] = system: ACHN renal
[8] = system: SK-MEL-5 melanoma
[9] = system: OVCAR-3 ovarian
[10] = system: OVCAR-5 ovarian

Row | SMILES | GI50 [1] | TGI [1] | GI50 [2] | TGI [2] | GI50 [3] | TGI [3] | GI50 [4] | TGI [4] | GI50 [5] | TGI [5] | GI50 [6] | TGI [6] | GI50 [7] | TGI [7] | GI50 [8] | TGI [8] | GI50 [9] | TGI [9] | GI50 [10] | TGI [10]
1 | Fc1cccc(COc2ccc(Nc3ncncc3C#Cc3ccccc3)cc2Cl)c1 | > 17.1 µM | > 25 µM | > 25 µM | > 25 µM | > 25 µM | > 25 µM | > 25 µM | > 25 µM | > 25 µM | > 25 µM | > 25 µM | > 25 µM | > 25 µM | > 25 µM | > 25 µM | > 25 µM | > 25 µM | > 25 µM | > 25 µM | > 25 µM
2 | NC(CO)Cc1cnc[nH]1 (configuration not stated) | > 100 µM | > 100 µM | > 100 µM | > 100 µM |  | > 10 µM | > 100 µM | > 100 µM | > 100 µM | > 100 µM | > 100 µM | > 100 µM | > 100 µM | > 100 µM | > 100 µM | > 100 µM | > 100 µM | > 100 µM |  | > 100 µM
3 | N#CC(=C1SCS1)[N+](=O)[O-] | 2.31 µM | 12.7 µM | 2.44 µM | 8.76 µM | 4.79 µM | 19 µM | 0.567 µM | 14.7 µM | 5.11 µM | 20.7 µM | 9.36 µM | 83.5 µM | 2.4 µM | 13.2 µM | 3.25 µM | 13.8 µM | 1.13 µM | 3.92 µM | 4.12 µM | 19.9 µM
4 | CC(C)(C)OC(=O)NC(Cc1ccccc1)C(=O)OCN1C(=O)C2C3C=CC(C2C1=O)C1C2C(=O)N(COC(=O)C(Cc4ccccc4)NC(=O)OC(C)(C)C)C(=O)C2C31 (configuration not stated) |  | > 90.9 µM |  | 58.9 µM |  | > 100 µM |  | > 100 µM |  | > 100 µM |  | > 82.7 µM |  | > 100 µM |  | > 74.8 µM |  | > 100 µM |  | > 100 µM
5 | Cc1nn(-c2ccc(F)cc2)c2ncnc(Nc3ccc(NC(=O)Nc4ccc(Cl)c(C(F)(F)F)c4)cc3)c12 | 2.6 µM | 7.93 µM | 1.32 µM | 5.41 µM | 2.46 µM | 7.13 µM | 1.96 µM | 4.48 µM | 1.03 µM | 3.98 µM | 2.93 µM | 10.2 µM | 1.75 µM | 5.62 µM | 3.39 µM | 12.1 µM | 2.06 µM | 5.79 µM | 2.81 µM | 11.9 µM
6 | C=CC(=O)N[C@H]1C=C(C)c2c(-c3cnc4ccccc4c3)c3c(N)ncnc3n2C1 | 0.351 µM | 3.99 µM | 3.56 µM | 30.5 µM | 13.5 µM | > 100 µM | 7.16 µM | 23.5 µM | 22.7 µM | > 100 µM | 32.4 µM | > 100 µM | 0.249 µM | 16.8 µM | 12.5 µM | 25.2 µM | 8.27 µM | 52.2 µM | 21.2 µM | 93.3 µM
7 | CCN1CCN(c2nc(NCCCNc3ccnc4cc(Cl)ccc34)c3ccccc3n2)CC1 | 11.3 µM | 23.5 µM | 1.78 µM | 6.88 µM | 2.12 µM | 9.57 µM | 1.61 µM | 3.13 µM | 3.09 µM | 14.5 µM | 2.96 µM | 11.5 µM | 2.04 µM | 4.54 µM | 1.74 µM | 3.11 µM | 2.9 µM | 10.3 µM | 3 µM | 11 µM
8 | O=C(Nc1nc2ccccc2s1)OCC(F)(F)F | > 100 µM | > 100 µM | > 100 µM | > 100 µM | > 100 µM | > 100 µM | > 100 µM | > 100 µM | > 100 µM | > 100 µM | > 100 µM | > 100 µM | > 100 µM | > 100 µM | > 100 µM | > 100 µM | > 100 µM | > 100 µM | > 100 µM | > 100 µM
9 | CC(C)(C)OC(=O)n1cc(CNC(=S)Nc2ccccc2)c2ccccc21 | 15.1 µM | 31.2 µM | 64.4 µM | > 100 µM | 49.4 µM | > 100 µM | 11.1 µM | 23 µM | 10.5 µM | 23 µM | 15.3 µM | 61.7 µM | 5.12 µM | 19.6 µM | 4.51 µM | 16.6 µM | 11.7 µM | 27.7 µM | 16.3 µM | 37.6 µM
10 | CCCCCCCCCCCCCC(=S)NCCCC[C@H](NC(=O)OCc1ccccc1)C(=O)Nc1ccccc1 | 3.75 µM | > 100 µM | 3.85 µM | > 100 µM | 3.9 µM | > 100 µM | 5.3 µM | > 100 µM | 2.58 µM | > 100 µM | 4.27 µM | > 100 µM | 3.15 µM | 19.7 µM | 8.39 µM | > 100 µM | 3.52 µM | > 100 µM | 10.3 µM | > 100 µM
11 | C#Cc1cnc(=O)n(C2CC(O)C(CO)O2)c1 (configuration not stated) | > 100 µM | > 100 µM | > 100 µM | > 100 µM | > 100 µM | > 100 µM | > 100 µM | > 100 µM | 3.36 µM | 11.3 µM |  | > 23 µM | > 100 µM | > 100 µM | > 100 µM | > 100 µM | 97 µM | > 100 µM | > 100 µM | > 100 µM
12 | O=C(CCN1CCN(c2cnc3ccccc3n2)CC1)c1csc2ccccc12 | 47.4 µM | > 100 µM | 24.2 µM | 91.6 µM | 28.2 µM | 92.5 µM | 26 µM | 70.1 µM | 28.1 µM | > 100 µM | > 100 µM | > 100 µM | 19.5 µM | 42.1 µM | 60.3 µM | > 100 µM | 25 µM | 61.5 µM | > 100 µM | > 100 µM
13 | CN1CCN(Cc2ccc(C(=O)Nc3cncc(C#Cc4cnc(N)c5ccccc45)c3)cc2C(F)(F)F)CC1 | 1.52 µM | 3.73 µM | 3.42 µM | 12.3 µM | 1.18 µM | 3.05 µM | 1.75 µM | 3.17 µM | 2.74 µM | 10.1 µM | 2.49 µM | 5.69 µM | 1.52 µM | 2.97 µM | 1.73 µM | 3.12 µM | 1.95 µM | 3.71 µM | 2.67 µM | 6.91 µM
